Key:
MCT1 = molecular target: T1, MCT1 (Homo sapiens, UniProt P53985); experiment: functional 3-BP cell viability assay (MCT1 transport inhibition); assay type: cell-based; settings: MCT1-expressing A-549 cells, 50 μM 3-BP, 72 h; read-out: MCT1 transport inhibition IC50 ± SEM
T1 construct: MCT1-expressing A-549 cells[14],[15] were exposed to the MCT1 substrate 3-BP, which becomes influxed by MCT1; endogenous in cells; host or cells: A-549 lung cancer cells (from NCCS, Pune)
T1 sequence (P53985 1-500): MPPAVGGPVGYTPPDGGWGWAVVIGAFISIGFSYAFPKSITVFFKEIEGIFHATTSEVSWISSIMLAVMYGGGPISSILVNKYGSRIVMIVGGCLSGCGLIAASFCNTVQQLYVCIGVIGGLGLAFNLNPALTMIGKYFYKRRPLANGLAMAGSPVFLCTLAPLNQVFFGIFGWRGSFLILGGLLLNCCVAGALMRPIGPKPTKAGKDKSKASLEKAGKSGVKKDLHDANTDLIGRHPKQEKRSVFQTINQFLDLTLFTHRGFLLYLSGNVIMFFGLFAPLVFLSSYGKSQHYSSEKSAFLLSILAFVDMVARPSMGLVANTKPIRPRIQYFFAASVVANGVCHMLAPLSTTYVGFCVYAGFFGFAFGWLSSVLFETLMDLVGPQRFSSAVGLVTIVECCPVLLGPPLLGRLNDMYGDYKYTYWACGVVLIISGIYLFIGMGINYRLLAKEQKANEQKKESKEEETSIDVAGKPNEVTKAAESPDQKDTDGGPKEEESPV
T1 sequence (P35613 140-385 partner limits assumed): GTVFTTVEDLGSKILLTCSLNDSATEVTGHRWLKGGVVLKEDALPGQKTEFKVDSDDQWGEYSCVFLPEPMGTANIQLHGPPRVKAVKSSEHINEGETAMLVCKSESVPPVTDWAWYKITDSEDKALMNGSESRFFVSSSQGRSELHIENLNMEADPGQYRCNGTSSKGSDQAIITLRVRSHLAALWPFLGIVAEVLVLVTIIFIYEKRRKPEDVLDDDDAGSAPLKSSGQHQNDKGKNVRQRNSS
Experimental: The inhibitory activity of indole derivatives against MCT1 was determined by applying a functional 3-bromopyruvate (3-BP) cell viability assay, as described in the literature[20],[39] with minor modifications. In short, MCT1-expressing A-549 cells[14],[15] were exposed to the MCT1 substrate 3-BP, which becomes influxed by MCT1. 3-BP is toxic, leading to decreased cell viability. Functional inhibition of MCT1 results in reduced intracellular 3-BP levels and, thus, enhanced cell viability compared to no inhibition. […] Table 1 provides the half-maximal inhibition concentration (IC50) values of compounds 17–32.
A functional 3-BP cytotoxicity assay was conducted as described in the literature[20],[39] with minor modifications. Dilution series of compounds 17–32 between 1 nM and 1 μM were prepared in DPBS (Cell Clone, Genetix Biotech Asia, New Delhi India), and 10 μL of each concentration was pipetted into a colorless flat-bottom 96-well microplate (SPL Life Sciences, Gyeonggi-do, Republic of Korea). One hundred and eighty microliters of a cell suspension (5000 cells/well) of A-549 cells was added, and subsequently, 10 μL of 3-BP was added at a concentration of 1 mM (final concentration per well: 50 μM). The plate was kept for 72 h at 37 °C under a 5% CO2-humidified atmosphere. Cell viability was determined as described before[43] by adding 20 μL of a 5 mg/mL solution of MTT to each well and further incubation for 1 h. Eventually, the supernatant was removed and 100 μL of DMSO was added to each well. The absorbance was spectrophotometrically determined at 570 nm using a SpectraMax iD3 multi-mode microplate reader (Molecular Devices, San Jose, CA) with a background correction (690 nm). The determined absorbance values were correlated to the logarithmic concentrations of compounds 17–32, and IC50 values were calculated applying nonlinear regression using GraphPad Prism (version 8.4.0., San Diego, CA).

ABCC1 = ABCC1 (Homo sapiens, UniProt P33527); experiment: daunorubicin assay, ABCC1-expressing H69AR cells; settings: screening at 10 μM, inhibitor if 20% (+SEM) reached
Chain of ABCC1 (P33527 whole entry): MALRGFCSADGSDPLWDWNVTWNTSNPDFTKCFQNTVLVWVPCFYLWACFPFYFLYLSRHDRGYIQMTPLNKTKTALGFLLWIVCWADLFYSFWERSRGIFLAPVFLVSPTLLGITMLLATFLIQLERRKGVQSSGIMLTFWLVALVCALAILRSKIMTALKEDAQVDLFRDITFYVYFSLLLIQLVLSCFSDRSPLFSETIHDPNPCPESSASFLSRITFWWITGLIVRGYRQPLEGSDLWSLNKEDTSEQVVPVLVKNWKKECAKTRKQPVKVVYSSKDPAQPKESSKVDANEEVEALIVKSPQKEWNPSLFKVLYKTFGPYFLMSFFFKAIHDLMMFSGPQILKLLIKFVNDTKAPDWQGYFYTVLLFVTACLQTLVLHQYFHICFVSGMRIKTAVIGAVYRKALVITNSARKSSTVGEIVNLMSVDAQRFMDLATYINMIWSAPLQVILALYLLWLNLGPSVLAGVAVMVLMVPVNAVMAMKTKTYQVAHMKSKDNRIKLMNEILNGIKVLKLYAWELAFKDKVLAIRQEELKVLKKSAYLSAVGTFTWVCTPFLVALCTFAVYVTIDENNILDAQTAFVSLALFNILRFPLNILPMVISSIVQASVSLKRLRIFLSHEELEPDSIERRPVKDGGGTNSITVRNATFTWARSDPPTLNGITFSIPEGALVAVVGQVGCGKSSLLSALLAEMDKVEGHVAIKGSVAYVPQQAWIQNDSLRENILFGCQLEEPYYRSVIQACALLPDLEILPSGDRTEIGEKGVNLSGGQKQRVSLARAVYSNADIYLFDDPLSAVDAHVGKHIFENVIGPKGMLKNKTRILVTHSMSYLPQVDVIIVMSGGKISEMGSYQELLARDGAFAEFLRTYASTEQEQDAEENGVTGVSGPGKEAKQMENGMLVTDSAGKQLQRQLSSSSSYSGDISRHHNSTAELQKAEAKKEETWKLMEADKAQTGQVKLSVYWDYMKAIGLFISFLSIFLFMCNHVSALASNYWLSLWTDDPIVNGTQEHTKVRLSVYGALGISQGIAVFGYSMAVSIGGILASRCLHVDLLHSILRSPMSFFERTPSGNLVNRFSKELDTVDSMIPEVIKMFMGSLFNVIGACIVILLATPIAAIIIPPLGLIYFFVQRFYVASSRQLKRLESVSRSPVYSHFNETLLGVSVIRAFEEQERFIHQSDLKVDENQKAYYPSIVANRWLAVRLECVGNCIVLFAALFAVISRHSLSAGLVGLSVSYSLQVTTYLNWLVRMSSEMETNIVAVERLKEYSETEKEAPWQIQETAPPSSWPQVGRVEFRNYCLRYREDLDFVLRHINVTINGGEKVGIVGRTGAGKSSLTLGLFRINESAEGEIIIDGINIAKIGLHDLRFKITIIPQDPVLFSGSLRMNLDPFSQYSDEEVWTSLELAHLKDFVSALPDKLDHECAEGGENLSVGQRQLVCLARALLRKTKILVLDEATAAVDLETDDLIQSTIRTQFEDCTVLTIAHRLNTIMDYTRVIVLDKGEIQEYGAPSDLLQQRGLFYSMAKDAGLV
Source text: To provide a detailed picture of the pharmacological profile of the indole derivatives, we investigated their modulatory nature on the most prominent ABC transporters ABCB1 (P-glycoprotein, P-gp), ABCC1, (multidrug resistance-associated protein 1, MRP1), and ABCG2 (breast cancer resistance protein, BCRP). Here, we conducted calcein AM (ABCB1),[2],[52]−[59] daunorubicin (ABCC1),[52],[58]−[60] and pheophorbide A (ABCG2)[2],[52]−[60] assays using ABCB1-expressing A2780/ADR, ABCC1-expressing H69AR, and ABCG2-expressing MDCK II BCRP cells, respectively.
The calcein AM (ABCB1),[2],[52]−[59] daunorubicin (ABCB1[52],[60] and ABCC1[52],[58]−[60]), and pheophorbide A (ABCG2)[2],[52]−[60] assays were conducted as reported earlier. […] The data was processed using GraphPad Prism version 8.4.0, and IC50 values were determined, applying three- or four-parameter logistic equations, whatever was statistically preferred.

A-549 cells [1] = experiment: PI/Annexin V-FITC apoptosis assay; assay type: cell-based; settings: 5 μM
Source text: As compound 24 increased the sub-G1 cell cycle fraction of A-549 cells, we investigated its capability to induce apoptosis in a PI/Annexin V-FITC staining assay, as reported earlier.[44],[46]−[51] In short, cells that were stained with PI only were considered necrotic cells (Q1), while cells stained with both PI and Annexin V were late apoptotic (Q2), and cells stained with Annexin V only were early apoptotic (Q4). Cells negative on both PI and Annexin V were considered living cells (Q3).
A PI/Annexin V-FITC double staining method was used to carry out a flow cytometry-based apoptosis assay, as reported earlier.[44],[46]−[51] For this purpose, a PI/Annexin V-FITC apoptosis detection kit (BD Biosciences, Franklin Lakes, NJ) was used following the manufacturer’s instructions. A-549 cells were seeded onto 6-well plates with a density of 500,000 cells/well and incubated for 24 h at 37 °C under a 5% CO2-humidified atmosphere. Subsequently, the cells were exposed to compound 24 (5 μM) followed by a further incubation period of 24 h at 37 °C under a 5% CO2-humidified atmosphere. The cells were trypsinized, washed with PBS, and resuspended in 1x binding buffer (1,000,000 cells/mL). One hundred microliters of test solution containing 100,000 cells treated with a mixture of PI (5 μL) and Annexin V-FTIC (5 μL) was incubated in the dark for 10–15 min at room temperature. Four hundred microliters of binding buffer was added, and the cells were resuspended again just before the flow cytometry analysis by using flow cytometry.

A-549 cells [2] = experiment: MTT-based cell viability assay with glucose supplementation; settings: 25 and 50% of original glucose (4.5 g/L) every 12 h over 72 h
Experimental: The glucose deprivation analyses were conducted by adding 4.5 μL of glucose (final concentrations 25% and 50% of the original 4.5 g/L) to each well at an interval of 12 h over a period of 72 h to the 180 μL cell suspension of A-549 cells in a colorless flat-bottom 96-well microplate (SPL Life Sciences, Gyeonggi-do, Republic of Korea). Cell viability was determined as described above.

Row | SMILES | IC50 (MCT1) [nM] | ABCC1 inhibition (ABCC1) | factor of increase of total apoptotic cells vs untreated (A-549 cells [1]) | Q1 necrotic cells (PI only) (A-549 cells [1]; 24 h) [%] | Q2 late apoptotic cells (PI and Annexin V) (A-549 cells [1]; 24 h) [%] | Q3 living cells (A-549 cells [1]; 24 h) [%] | Q4 early apoptotic cells (Annexin V only) (A-549 cells [1]; 24 h) [%] | percentage of total apoptotic cells (A-549 cells [1]; 24 h, untreated 0.51%) [%] | effect of glucose supplementation on cell toxicity (A-549 cells [2])
1 | COC(=O)/C(C#N)=C/c1cn(CC(=O)Nc2ccc(OC)cc2)c2ccccc12 [Compound 24, Methyl-2-cyano-3-(1-(2-((4-methoxyphenyl)amino)-2-oxoethyl)-1H-indol-3-yl) Acrylate] | 81 ± 4 | X (Compounds were considered as inhibitors if they reached 20% (+SEM) inhibition compared to the reference inhibitors 33–35; X = fulfilled) | 13 | 10.6 | 5.08 | 82.7 | 1.60 | 6.68 | supplementation of glucose prevents cell toxicity
2 | COC(=O)/C(C#N)=C/c1cn(CC(=O)Nc2ccc(C)cn2)c2ccccc12 [Compound 30, Methyl-2-cyano-3-(1-(2-((5-methylpyridin-2-yl)amino)-2-oxoethyl)-1H-indol-3-yl) Acrylate] | 82.3 ± 4.4 | X (Compounds were considered as inhibitors if they reached 20% (+SEM) inhibition compared to the reference inhibitors 33–35; X = fulfilled) | – | – | – | – | – | – | supplementation of glucose prevents cell toxicity

— PMC9841531, “Indole Derivatives as New Structural Class of Potent and Antiproliferative Inhibitors of Monocarboxylate Transporter 1 (MCT1; SLC16A1)” (Journal of Medicinal Chemistry, 2022)
